Experimental data as given in ChEMBL document CHEMBL3868639, “Great Therapeutic Potential of Peptidylarginine Deiminase 4 (PAD4) Inhibitors: Treatment of Rheumatoid Arthritis, Epigenetic Tools, Regulation of Pluripotency in Stem Cells, and More” (ACS Med Chem Lett, 2017).

target: Protein-arginine deiminase type-2 (Homo sapiens, UniProt Q9Y2J8); test: Inhibition of N-terminal 6His/FLAG-tagged recombinant human PAD2 (1 to 665 residues) expressed in baculovirus infected sf9 cells using N-a-benzoyl-L-arginine ethyl ester as substrate preincubated for 30 mins followed by substrate addition after 90 mins by DTT-based fluorescence assay
Sequence (Q9Y2J8 whole entry, the tested form may be a part): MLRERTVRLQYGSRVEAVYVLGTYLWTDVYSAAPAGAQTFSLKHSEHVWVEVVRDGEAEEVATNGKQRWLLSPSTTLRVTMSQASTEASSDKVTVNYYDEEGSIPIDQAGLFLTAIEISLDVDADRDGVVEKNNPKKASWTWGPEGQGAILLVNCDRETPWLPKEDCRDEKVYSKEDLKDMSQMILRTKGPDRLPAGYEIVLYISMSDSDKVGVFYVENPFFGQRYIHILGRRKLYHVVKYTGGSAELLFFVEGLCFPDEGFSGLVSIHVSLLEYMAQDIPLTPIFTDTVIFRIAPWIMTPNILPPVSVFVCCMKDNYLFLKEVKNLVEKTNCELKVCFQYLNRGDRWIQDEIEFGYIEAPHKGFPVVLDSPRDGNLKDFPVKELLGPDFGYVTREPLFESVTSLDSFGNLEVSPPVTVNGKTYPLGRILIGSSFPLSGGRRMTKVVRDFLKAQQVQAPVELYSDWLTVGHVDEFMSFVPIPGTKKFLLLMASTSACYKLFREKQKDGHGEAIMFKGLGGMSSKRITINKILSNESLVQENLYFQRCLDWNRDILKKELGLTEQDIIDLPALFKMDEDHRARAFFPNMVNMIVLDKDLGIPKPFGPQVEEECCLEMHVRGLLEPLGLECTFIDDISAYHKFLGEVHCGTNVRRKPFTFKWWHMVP

IC50, 10 to 79.4 µM:
COc1cc(C(=O)N2CCC[C@@H](N)C2)cc2nc(-c3cc4ccccc4n3CC(F)(F)F)n(C)c12
Cn1c(-c2cc3ccccc3n2CC2CC2)nc2cc(C(=O)N3CCC[C@@H](N)C3)ccc21
COc1cc(C(=O)N2CCC[C@@H](N)C2)cc2nc(-c3cc4ccccc4n3CC3CC3)n(C)c12
COc1cc(C(=O)N2CC[C@@H](O)[C@@H](N)C2)cc2nc(-c3cc4ccccc4n3CC(F)(F)F)n(C)c12
